What all share (type): cell-based
For one data set, the system named is A549 cells. As to the kind of experiment: Safety of barriers: A549 cell morphology. To be noted: 5% concentrations; incubated 1 h; 10× magnification. The method, then: During protection of mucocutaneous linings, barriers will be exposed repeatedly due to frequent dosing. A critical criterion for selecting the right cyclodextrin for a nanoformulation barrier usable in this application is the safety of the cyclodextrin type. A549 cells were seeded at 4×10^4 cells per well and grown to confluence. Cyclodextrin-based formation candidates were tested at 5% concentrations and incubated for 1 h prior to the addition. The barrier was then replaced with media for evaluation. Pictures were taken for at least five field views at 10× magnification.

The next data set deals with A549. As to the kind of experiment: Alamar Blue chemical dye penetration through barrier, A549. The method, then: (§1) Studies test efficacy barrier to prevent chemical dye penetration. We used a resurazine dye that can penetrate across cellular membranes where it is […] to form a purple color and is quantifiable using fluorescence or visible light. Chemical exposure used Alamar Blue which was incubated for 4 hours. The ability of the barrier formulation to prevent chemical penetration was measured at 570 nm and confirmed using fluorescence intensity (560/590 nm) readings. A concentration dependent response to HPBCD was observed over four hours of incubation. The chemical dye penetration was reduced with increasing percent beta cyclodextrin across all timepoints (FIG. 5).
The ability to block chemical exposure was also conducted in the other cyclodextrins namely hydroxypropyl gamma cyclodextrin (HPGCD), sulfonylbutyl ethyl beta cyclodextrins (SBEBCD), and randomly methylated methyl beta cyclodextrins (CRYSMEB) and incubating over 4 hours. The ability of the barrier formulations to prevent chemical penetration was measured at an absorbance of 570 nm and confirmed using fluorescence intensity (560/590 nm) readings. […] The addition of HEC improved the ability to prevent chemical penetration (Table 2). Although the data is unexpected, it allows for further probe into the effect of these cyclodextrin derivatives on viral particles which may be bigger and more hydrophobic.
(§2) To determine the ability of the candidate nanoscale barrier to prevent chemical penetration, epithelial cells (e.g., HEK293T, A549, Vero-E6 ACE2) were seeded at 1×10^4 cells per well and incubated in DMEM till confluence. Cyclodextrin-based formation candidates were tested at various concentrations from 0 to 20% was added at varying concentrations (% w/v) and incubated for 0.5 h prior to the addition of the Alamar Blue. Alamar Blue is able to penetrate the cell, where viable cells are able to reduce the resazurin-based solution to quantitatively measure level of penetration.

Another data set relates to HEK293T. Nature of the data set: Alamar Blue chemical dye penetration through barrier, HEK293T. Here is the method: as §1, §2
For orientation: Alamar Blue is a resazurin reagent that responds to reducing activity.

In data set [1] the test system is pLV[Exp]-Puro-CMV>EGFP lentivirus. As to the kind of experiment: EGFP lentivirus infection of HEK293T cells in presence of barrier. Here is the method:
To simulate viral infection, we used lentivirus that has green fluorescent protein (GFP) incorporated into its gene. Lentivirus are designed to be highly efficient to transfect epithelial cells such as HEK293T. The effect of HPBCD barrier to present viral infection was evaluated using a concentration escalation study, where HPBCD ranged from 0 to 25% (w/v). In this study, we used a pLV[Exp]-Puro-CMV>EGFP lentivirus to infect HEK293T.
Human muco-ciliary deposition and clearance of exogenous substances occurs in 30 minutes as determined through real time methodology (Thrall et al., Inhalation Toxicology, 2003. 15(6): p. 523-538). Subsequently the EGFP lentivirus was incubated in the presence and absence of the HPBCD barrier for reduced time periods (0.5 h and 2 h) to reflect applicability of a HPBCD nasal spray. After the incubation period, barriers were removed, and cells were washed with 1×PBS before replacement with complete cell culture medium. 24 hours post-incubation at 5% CO2 and 37 degrees C., fluorescence imaging was conducted using the Biotek Cytation 5 imaging device in which 4×GFP images were taken. […] After 30 minutes of incubation with the virus, there is 50% reduction of viral infectivity as measured by fluorescence signal using 5% HPBCD.
To test the ability to prevent viral Epithelial cells (e.g., HEK293T, A549, Vero-E6 ACE2) were used a models chemical and viral infections. Cells were seeded onto 96-well plates at a density of 10^4 cells per well and incubated in DMEM (phenol red free) with 10% FBS and 1% non-essential ammino acids (NEAA). Cells were allowed to attach and grown to confluence to allow for cell polarization prior to experimentation.
Cyclodextrin was added at varying concentrations (% w/v) and incubated for 0.5 h prior to the addition of the virus. Polybrene added at a final concentration of 5 ug/mL to promote viral uptake. Cells were then infected with pLV[Exp]-Puro-CMV>EGFP lentivirus and incubated at 37° C., 5% CO2 for 0.5, 2, or 24 h depending upon the experimental setup. After the incubation time, the beta cyclodextrin solution was removed and cells washed with 1×PBS twice prior to the addition of complete growth medium (DMEM). GFP lentivirus was imaged using the Cytation 5 (Biotek) and relative fluorescence quantified using the Synergy H1 microplate reader (Biotek).

The next data set has as its system Vero-E6 ACE2. As to the kind of experiment: Alamar Blue chemical dye penetration through barrier, Vero-E6 ACE2. Here is the method: as §1, §2
[2] abbreviates: Table 2, confluent A549, 2.5% cyclodextrin (+ HEC: 0.188% HEC), 2 hr, negative values = increase in fluorescence intensity.
The mark [3] stands for this setting: Table 2, confluent A549, 2.5% cyclodextrin (+ HEC: 0.188% HEC), 4 hr, negative values = increase in fluorescence intensity.
The mark [4] stands for this setting: Table 2, confluent A549, 5% cyclodextrin (+ HEC: 0.375% HEC), 2 hr, negative values = increase in fluorescence intensity.
[5] abbreviates: Table 2, confluent A549, 5% cyclodextrin (+ HEC: 0.375% HEC), 4 hr, negative values = increase in fluorescence intensity.
[6] abbreviates: Table 2, confluent A549, 10% cyclodextrin (+ HEC: 0.75% HEC), 2 hr, negative values = increase in fluorescence intensity.
Where [7] appears, read: Table 2, confluent A549, 10% cyclodextrin (+ HEC: 0.75% HEC), 4 hr, negative values = increase in fluorescence intensity.
Setting [8] is: confluent A549, incubation over 4 hours.
The mark [9] stands for this setting: 2.5% HPBCD (Combination: + 0.188% HEC), 2 hr.
Where [10] appears, read: 2.5% HPBCD (Combination: + 0.188% HEC), 4 hr.
[11] abbreviates: 5% HPBCD (Combination: + 0.375% HEC), 2 hr.
The mark [12] stands for this setting: 5% HPBCD (Combination: + 0.375% HEC), 4 hr.
Where [13] appears, read: 10% HPBCD (Combination: + 0.75% HEC), 2 hr.
Setting [14] is: 10% HPBCD (Combination: + 0.75% HEC), 4 hr.

On to “crystalline methylated beta-cyclodextrin [CRYSMEB]”, for which the “A549 cell morphology / cell death” value in the data set on A549 cells was “cellular death and cellular morphological changes”. In addition, the “chemical dye penetration (in words)” value in the data set on A549 (A549, across all timepoints) is reported as “reduced in a dose-dependent manner”. For the same compound, the “Percent Reduction Compared to No Barrier Treatment (Mean ± SD)” value stood at 36.0 ± 2.3% in the data set on A549 (setting [2]); 35.3 ± 1.9% in the data set with A549 (setting [3]); 47.9 ± 0.8% in the data set on A549 (setting [4]); 52.3 ± 2.6% in the data set with A549 (setting [5]); 58.5 ± 1.4% in the data set with A549 (setting [6]); 67.6 ± 2.3% in the data set on A549 (setting [7]).

In the case of “sulfobutyl ether-beta-cyclodextrin [SBEBCD]”, the “Percent Reduction Compared to No Barrier Treatment (Mean ± SD)” value with A549 (setting [2]) is 10.7 ± 2.57%; in the data set on A549 (setting [3]) it was −244.5 ± 3.0%; in the data set on A549 (setting [4]), 39.5 ± 1.2%; in the data set on A549 (setting [5]), −218.2 ± 13.2%; with A549 (setting [6]) it was 51.3 ± 2.4%; with A549 (setting [7]), −108.2 ± 19.5%. Besides, the “chemical dye penetration (in words)” value with A549 (confluent A549, 2 h timepoint) is on record as “dose-dependent reduction in chemical dye penetration”; with A549 (setting [8]) it was “enhanced chemical dye penetration”.

Regarding “2-Hydroxypropyl-Gamma-cyclodextrin [HPGCD]”, the “Percent Reduction Compared to No Barrier Treatment (Mean ± SD)” value is given as −89.9 ± 3.8% in the data set with A549 (setting [2]); −244.5 ± 3.0% in the data set on A549 (setting [3]); −46.7 ± 2.4% with A549 (setting [4]); −210.66 ± 3.0% in the data set on A549 (setting [5]); −13.1 ± 1.4% with A549 (setting [6]); −97.0 ± 2.1% in the data set with A549 (setting [7]). In the data set on A549 (setting [8]), the “chemical dye penetration (in words)” value was “enhanced chemical dye penetration”.

With `CC(O)COC[C@H]1O[C@@H]2O[C@H]3[C@H](O)[C@@H](O)[C@@H](O[C@H]4[C@H](O)[C@@H](O)[C@@H](O[C@H]5[C@H](O)[C@@H](O)[C@@H](O[C@H]6[C@H](O)[C@@H](O)[C@@H](O[C@H]7[C@H](O)[C@@H](O)[C@@H](O[C@H]8[C@H](O)[C@@H](O)[C@@H](O[C@H]1[C@H](O)[C@H]2O)O[C@@H]8COCC(C)O)O[C@@H]7COCC(C)O)O[C@@H]6COCC(C)O)O[C@@H]5COCC(C)O)O[C@@H]4COCC(C)O)O[C@@H]3COCC(C)O` (stereo partly drawn) [HPBCD, (2-Hydroxypropyl)-Beta-Cyclodextrin], the “Percent Reduction Compared to No Barrier Treatment (Mean ± SD)” value with HEK293T (setting [9]) turned out to be 70.4 ± 1.7%; with HEK293T (setting [10]), 71.7 ± 0.8%; in the data set on HEK293T (setting [11]), 77.5 ± 0.6%; in the data set with HEK293T (setting [12]), 80.4 ± 0.8%; in the data set with HEK293T (setting [13]), 79.8 ± 0.6%; in the data set with HEK293T (setting [14]), 84.3 ± 0.6%. The “Percent Reduction Compared to No Barrier Treatment (Mean ± SD)” value in the data set with Vero-E6 ACE2 (setting [9]) is 62.8 ± 2.0%; with Vero-E6 ACE2 (setting [10]), 67.1 ± 1.8%; in the data set with Vero-E6 ACE2 (setting [11]), 70.2 ± 1.2%; in the data set on Vero-E6 ACE2 (setting [12]), 76.9 ± 0.6%; with Vero-E6 ACE2 (setting [13]), 73.5 ± 1.2%; in the data set on Vero-E6 ACE2 (setting [14]) it was 82.5 ± 0.9%. The “Percent Reduction Compared to No Barrier Treatment (Mean ± SD)” value stood at 82.5 ± 1.4% in the data set with A549 (A549, 2.5% HPBCD (Combination: + 0.188% HEC), 2 hr); 66.9 ± 1.9% with A549 (A549, 2.5% HPBCD (Combination: + 0.188% HEC), 4 hr); 88.5 ± 0.7% with A549 (A549, 5% HPBCD (Combination: + 0.375% HEC), 2 hr); 81.5 ± 0.7% with A549 (A549, 5% HPBCD (Combination: + 0.375% HEC), 4 hr); 89.3 ± 0.6% in the data set on A549 (A549, 10% HPBCD (Combination: + 0.75% HEC), 2 hr); 82.9 ± 0.9% in the data set with A549 (A549, 10% HPBCD (Combination: + 0.75% HEC), 4 hr). In addition, in the data set on HEK293T (FIG. 5, P<0.01), the “chemical dye (Alamar blue) penetration, relative fluorescence intensity vs no treatment” value was “statistically significant reduction”. Moreover, the “viral infectivity (GFP expressing lentiviruses)” value in data set [1] (5-20% HPBCD alone) was “able to reduce viral infectivity”. The “signs of lentivirus infection” value in data set [1] (20% HPBCD alone as a barrier) was “No signs of lentivirus infection”. Moreover, the “infectivity in HEK cells” value in data set [1] (0.5 h and 2 h incubation, p<0.05 and p<0.01 respectively) is “concentration dependent decrease in infectivity”. For the same compound, the “reduction of viral infectivity as measured by fluorescence signal” value in data set [1] (HEK293T, 5% HPBCD, 30 minutes of incubation with the virus) was determined as 50%. In data set [1] (HEK293T, MOI of 5, 6 hours, 10% and 20% HPBCD, p≤0.01), the lentivirus infectivity entry was “reduced lentivirus infectivity”. Further, the “A549 cell morphology / cell death” value in the data set with A549 cells is recorded as “No significant changes in cellular morphology or cell death”.

The values above are taken from patent US20230226100A1, “CYCLODEXTRIN BASED ANTI-MICROBIAL THERAPY” (University of Southern California, priority 2020, published 2023).
